Reference: patent US20030091620A1, “Transdermal drug delivery systems containing quaternary ammonium salts and methods of using the same” (priority 1999, published 2003)
Like-named read-outs stand apart in the source and are kept apart here.

Key:
E3 organism [1] = experiment: Zone of Inhibition testing of paper discs saturated with aqueous antimicrobial solutions; format: cell-based, gram-positive, coagulase-negative cocci
Description: In this experiment, the effectiveness of various topical antimicrobial agents against the E3 organism was determined using Zone of Inhibition testing of paper discs saturated with aqueous antimicrobial solutions.

E3 organism [2] = experiment: Zone of Inhibition testing of antimicrobial-loaded transdermal matrix disks; format: cell-based, gram-positive, coagulase-negative cocci
Description: These patches were cut into 1 cm^2 disks and subjected to Zone of Inhibition testing against the E3 organism with 24-hour incubation.
In the next experiment, placebo matrix patches (18 cm^2 area) were manufactured for a clinical wear study.

[3] = test system: bacterial count on the skin; conditions: cited from earlier work
[4] = in vivo; cited from earlier work
[5] = In vitro skin flux from PSA matrix patches and hydroalcoholic gels (modified Franz diffusion cells); conditions: 24-hour skin flux of the drug from Morstick 214 PSA patch with 1% BzthCl, relative to 0% enhancer
Description: In vitro skin flux studies were conducted on epidermal membranes (stratum corneum and epidermis) obtained from whole human cadaver skin (epidermal membrane and dermis) by the heat-separation method of Kligman & Christopher, 88 Arch. […] This method consists of immersion of the whole skin for 60 seconds in water at 60° C., followed by mechanical separation of the epidermal and dermal layers. After separation, the epidermal membrane is stored in aluminum foil at −5° C. until use.
Skin flux experiments were conducted in two-compartment glass diffusion cells with a modified Franz design. The receiver compartment was filled with water or an aqueous buffer appropriate to maintain sink conditions for the drug. All receiver media included 0.02% (w/w) sodium azide to inhibit bacterial growth. […]
At predetermined sampling intervals, the entire volume of the receiver compartment solution was collected for drug quantification, and the receiver compartment was filled with fresh receiver solution, taking care to eliminate any air bubbles at the skin/solution interface.
Receiver solution samples were analyzed for drug content by HPLC with external standards of known drug concentration used for calibration. The cumulative amount of drug permeated per unit area at any time t (Qt, μg/cm^2) was determined according to the following equation: [formula] […]

[6] = aqueous solution 2.0% w/w on 0.33 cm^2 paper disks, read-out: Zone of Inhibition

## O=C(O)c1ccccc1 [Benzoic Acid]
E3 organism [1]
  zone of inhibition at 2 % strength: 10 mm
E3 organism [2]; 24 h
  zone of inhibition at 0.4 % strength: < 0 mm

## benzalkonium chloride
E3 organism [1]; aqueous solution 0.4% w/w on 0.33 cm^2 paper disks
  Zone of Inhibition: 13 mm
E3 organism [2]; 0.4% w/w in DuroTak 87-2888 adhesive matrix disks, 24-hour incubation
  Zone of Inhibition: 15 mm
[3]
  time required for the bacterial count on the skin to be decreased by 50%: 7 min
  time required to effect a 90% reduction of bacterial count: 25 min
[4]
  skin irritation: severe irritation

## Cl.O=C1CC2(CCCC2)CC(=O)N1CCCCN1CCN(c2ncccn2)CC1 [Buspirone HCI]
[5]
  % Increase in Q24: 38 (21%)

## CCO [70% ethanol, ethanol]
[3]
  time required for the bacterial count on the skin to be decreased by 50%: 0.6 min
  time required to effect a 90% reduction of bacterial count: 2 min

## COC(=O)c1ccc(O)cc1 [Methyl Paraben]
E3 organism [1]; [6]
  zone of inhibition at 2 % strength: 0 mm

## OCc1ccccc1 [Benzyl Alcohol]
E3 organism [1]; [6]
  zone of inhibition at 2 % strength: 10 mm
